Patent publication US20250290099A1, “MATERIALS AND METHODS FOR TARGETED GENETIC MANIPULATIONS IN CELLS” (The Regents of the University of California, priority 2021, published 2025)

How the values were obtained:
CD5 target locus = assay: Amplicon sequencing of the CD5 target locus, repair outcomes; type: cell-based, human; conditions: small CD5-HA templates
Source text: We further examined repair outcomes at the genetic level by amplicon sequencing of the CD5 target locus with different versions of the small CD5-HA templates and inhibitor cocktails. […] The ratio of perfect:imperfect HDR events was also similar across the different types of templates. Intriguingly, […] […] Inclusion of HDR templates was associated with preferential reduction in the larger deletions characteristic of MMEJ (while smaller indels characteristic of NHEJ were more refractory in the absence of DNA-PK inhibition), in agreement with recent reports.

primary human T cells [1] = assay: CD5-HA knock-in with short ssDNA HDRT, knock-in efficiency by flow cytometry; type: cell-based; conditions: short ssDNA CD5-HA knock-in construct, optimal concentrations, inhibitors for 24 hours after electroporation
Source text: (a) Evaluation of relative increase in % knock-in using an ssDNA CD5-HA knock-in construct over varied concentrations of 5 different small molecule inhibitors assessed by flow cytometry. […] (b) Comparison of relative % knock-in (top) and live cell counts (bottom) with small molecule inhibitor combinations. […] Panel a, b, and d were each performed with T cells from 2 independent healthy human blood donors. […] Error bars indicate standard deviation. CTS=Cas9 Target Site, HDRT=homology-directed-repair template, dsCTS=dsDNA+CTS HDRT, ssCTS=ssDNA+CTS HDRT, TSA=Trichostatin A, HDR Enhancer=IDT Alt-R HDR Enhancer, MT=M3814+TSA, MTX=M3814+TSA+XL413.
(§2) Trichostatin A (TSA) (Cayman Chemical), Nedisertib (M3814) (MedKoo Biosciences), XL413 hydrochloride (XL413) (Fisher Scientific), NU7441 (Fisher Scientific), and Alt-R HDR enhancer (IDT) were prepared and stored as aliquots per manufacturer guidelines. For experiments using small molecule inhibitors, cells were incubated with the indicated concentrations upon addition of fresh growth media following the 15 minute rescue step, and removed by media exchange after 24 hours.

primary human T cells [2] = assay: Live cell counts after electroporation with small molecule inhibitors; type: cell-based
Protocol: (d) Evaluation of live cell counts with MT and MTX inhibitor combinations using 44 different knock-in constructs targeting a tNGFR marker across 22 different target loci with 2 gRNA per gene (g1 and g2). Panel a, b, and d were each performed with T cells from 2 independent healthy human blood donors. Panel c was performed with T cells from 4-6 independent healthy human blood donors. Error bars indicate standard deviation. CTS=Cas9 Target Site, HDRT=homology-directed-repair template, dsCTS=dsDNA+CTS HDRT, ssCTS=ssDNA+CTS HDRT, TSA=Trichostatin A, HDR Enhancer=IDT Alt-R HDR Enhancer, MT=M3814+TSA, MTX=M3814+TSA+XL413.
as §2

primary human T cells [3] = type: cell-based; conditions: ssCTS tNGFR template +/- MT and MTX
Source text: (a) Knock-in efficiencies for constructs targeting a tNGFR marker to 22 different target genome loci. (b-d) Comparison of large ssDNA and dsDNA HDRTs with CTS sites for knock-in of a pooled library of 2.6-3.6 kb polycistronic constructs targeted to the TRAC locus. Shown for each HDRT variation is (b) relative % knock-in in comparison to maximum for dsDNA+CTS templates, (c) relative knock-in cell count yields in comparison to maximum for dsDNA+CTS templates, and (d) representation of each library member in knock-in cells post-electroporation in comparison to construct representation the input plasmid pool. (e-g) Comparison of knock-in cell yields using ssDNA (red) and dsDNA HDRTs (blue) with CTS sites across a variety of primary human hematopoietic cell types. Note, different cell type comparisons are performed with different blood donors. All comparisons were performed using a knock-in construct generating an CLTA-mCherry fusion at the CLTA locus. Shown for each cell type using HDRT concentrations from 5-160 nM are (e) knock-in cell count yields, (f) maximum fold-change in knock-in count yields (relative to dsCTS templates), and (g) maximum % knock-in. […]
(a) Evaluation of relative increase in % knock-in using an ssDNA CD5-HA knock-in construct over varied concentrations of 5 different small molecule inhibitors assessed by flow cytometry. […]

IL2RA = assay: TIDE indel analysis, RNPs targeting exon 1 of IL2RA +/- M3814 and TSA; type: cell-based, human; conditions: with addition of M3814 and TSA
Protocol: Media was refreshed after 24 hours in all samples, and cells were resuspended in growth media and IL-2. Six days after electroporations, genomic DNA was isolated from samples and amplicons were generated using PCR. Amplicons were sequenced and analyzed using TIDE (Tracking of Indels by Decomposition) to determine distinct changes in indel spectrums.

CTLA4 gene = assay: CTLA4 gRNA screen: cutting efficiency by TIDE indel analysis; type: cell-based, human; conditions: TIDE indel analysis at target locus
Source text: (§1) As a further example, we examined an ORF insertion within the CTLA4 gene (FIG. 8E). CTLA4 deficiency is caused most frequently by a haploinsufficiency with a disease-causing mutation on only 1 of 2 alleles. Exon-targeting strategies generate indels which could disrupt the normal allele and worsen disease. To avoid this possibility, we screened a panel of gRNA in intron 1, set forth in Table 3, to identify targets which cut efficiently without disrupting protein expression (FIG. 7B).

CTLA4 protein = assay: CTLA4 gRNA screen: protein disruption by CTLA4 flow cytometric analysis; type: cell-based, human; conditions: activated CD4+ T cells, flow cytometry
Protocol: Flow Cytometry. All flow cytometry was performed on an Attune NxT flow cytometer with a 96-well autosampler (Thermo Fisher Scientific). Unless otherwise indicated, cells were collected 3-5 days post-electroporation, resuspended in FACS buffer (1%-2% BSA in PBS) and stained with Ghost Dye red 780 (Tonbo) and the indicated cell-surface and intracellular markers (see Table 2 for antibodies). For intracellular staining, cells were stained for surface markers and then prepared for intracellular staining using True-Nuclear Transcription Factor staining kits (Biolegend). […] Analysis was done using FlowJo v10 software. All gating strategies included exclusion of subcellular debris, singlet gating, and live:dead stain. Final graphs were produced with Prism (GraphPad), and figures were compiled with Illustrator (Adobe).
as §1

Compound | %indel (CTLA4 gene) [%] | %CTLA4 protein loss above background (CTLA4 protein) [%] | also measured
COc1ccc([C@@H](O)c2cc(-c3ncnc4cc(N5CCOCC5)ccc34)c(F)cc2Cl)nn1 [M3814, (S)-(2-chloro-4-fluoro-5-(7-morpholinoquinazolin-4-yl)phenyl)(6-methoxypyridazin-3-yl)methanol] |  |  | repair outcomes: frequency of indels (CD5 target locus): decreased frequency of indels; increase in knock-in efficiency (primary human T cells [1]): ~49%
O=c1cc(N2CCOCC2)oc2c(-c3cccc4c3sc3ccccc34)cccc12 [NU7441, 8-(dibenzo[b,d]thiophen-4-yl)-2-morpholino-4H-chromen-4-one] |  |  | increase in knock-in efficiency (primary human T cells [1]): ~43%
CC(/C=C/C(=O)NO)=C\[C@@H](C)C(=O)c1ccc(N(C)C)cc1 [TSA, [R-(E,E)]-7-[4-(dimethylamino)phenyl]-N-hydroxy-4,6-dimethyl-7-oxo-2,4-heptadienamide] |  |  | increase in knock-in efficiency (primary human T cells [1]): ~16%
Cl.O=c1[nH]c([C@@H]2CCCN2)nc2c1oc1ccc(Cl)cc12 [XL413, (S)-8-chloro-2-(pyrrolidin-2-yl)benzofuro[3,2-d]pyrimidin-4(3H)-one hydrochloride] |  |  | increase in knock-in efficiency (primary human T cells [1]): ~46%; reduction in cell counts (primary human T cells [2]; Day 11): ~20%; reduction in cell counts (primary human T cells [2]; day 4 post-electroporation): ~50%
CD7 g1: gRNA targeting CD7, TCAGCTGCACTCGCCCGGCT (SEQ ID NO: 17), with corresponding tNGFR ssCTS template (listed as DNA, chemistry not given here) |  |  | effect size of inhibitors: increase in knock-in efficiency (primary human T cells [3]): relatively little increase
G377: crRNA/gRNA targeting IL2RA, TGAGCAGTCCCCACATCAGC (SEQ ID NO: 13) (listed as DNA, chemistry not given here) |  |  | cutting efficiency (IL2RA): not impacted
G509: gRNA, CTLA4 exon 1, target sequence CCTTGTGCCGCTGAAATCCA (SEQ ID NO: 63) (listed as DNA, chemistry not given here) | 78.2 | 39.2 | 
G510: gRNA, CTLA4 exon 1, target sequence CCTTGGATTTCAGCGGCACA (SEQ ID NO: 64) (listed as DNA, chemistry not given here) | 47.7 | 16.65 | 
G511: gRNA, CTLA4 exon 1, target sequence GCACAAGGCTCAGCTGAACC (SEQ ID NO: 65) (listed as DNA, chemistry not given here) | 71.85 | 32.4 | 
G512: gRNA, CTLA4 exon 1, target sequence CTCAGCTGAACCTGGCTACC (SEQ ID NO: 66) (listed as DNA, chemistry not given here) | 12.15 | 1.3 | 
G513: gRNA, CTLA4 exon 1, target sequence TGAACCTGGCTACCAGGACC (SEQ ID NO: 67) (listed as DNA, chemistry not given here) | 23.7 | 10.2 | 
G514: gRNA, CTLA4 exon 1, target sequence AGAAAAAACAGGAGAGTGCA (SEQ ID NO: 68) (listed as DNA, chemistry not given here) | 94.35 | 47.45 | 
G515: gRNA, CTLA4 intron 1, target sequence TTGTATGCCAAACAGACTGG (SEQ ID NO: 69) (listed as DNA, chemistry not given here) | 79.25 | 0 | 
G516: gRNA, CTLA4 intron 1, target sequence TGCATCTGAAACCCACACGT (SEQ ID NO: 70) (listed as DNA, chemistry not given here) | 61.95 | 0 | 
G517: gRNA, CTLA4 intron 1, target sequence CTCTGAAGAGCTGAAAACTG (SEQ ID NO: 71) (listed as DNA, chemistry not given here) | 80.35 | 0 | 
G519: gRNA, CTLA4 intron 1, target sequence ACATATTTCATGGTAGAGCC (SEQ ID NO: 73) (listed as DNA, chemistry not given here) | 89.65 | 0 | 
G520: gRNA, CTLA4 intron 1, target sequence GATATGACAAACAGAAGACC (SEQ ID NO: 4) (listed as DNA, chemistry not given here) | 72.5 | 0 | 
PI3KCD g2: gRNA targeting PI3KCD, TAACAACGCAGGATGCCCCC (SEQ ID NO: 38), with corresponding tNGFR ssCTS template (listed as DNA, chemistry not given here) |  |  | effect size of inhibitors: increase in knock-in efficiency (primary human T cells [3]): up to 7 fold
